Assay results as given in US7553969B1, “Substituted phenethylamine derivatives” (Chugai Seiyaku Kabushiki Kaisha, priority 1999, dated 2009).
pIC50: −log10 of the molar value. Where a SMILES comes first, the peptide text is derived from it. [ ]: non-standard residue; d: D form. NMeTyr(3-tBu) = CN[C@@H](Cc1ccc(O)c(C(C)(C)C)c1)C(=O)O; Tyr(3-tBu) = CC(C)(C)c1cc(C[C@H](N)C(=O)O)ccc1O; Phe(3,4-F2) = N[C@@H](Cc1ccc(F)c(F)c1)C(=O)O; Tyr(3-F) = N[C@@H](Cc1ccc(O)c(F)c1)C(=O)O; Phe(4-Cl) = N[C@@H](Cc1ccc(Cl)cc1)C(=O)O; Phe(3-F) = N[C@@H](Cc1cccc(F)c1)C(=O)O; Phe(4-F) = N[C@@H](Cc1ccc(F)cc1)C(=O)O; NMeV = CN[C@H](C(=O)O)C(C)C

Columns and labels:
[1] = target: T1, motilin receptor (Oryctolagus cuniculus, UniProt G1T803); experiment: Motilin receptor binding test (125I motilin, rabbit duodenum protein sample); conditions: 125I motilin 25 pM, concentration reducing specific binding by 50%
T1 construct: homogenized in 50 mM Tris buffer to prepare a protein sample; from tissue; host or cells: rabbit duodenum homogenate (mucous membrane separated)
T1 sequence (G1T803 1-400): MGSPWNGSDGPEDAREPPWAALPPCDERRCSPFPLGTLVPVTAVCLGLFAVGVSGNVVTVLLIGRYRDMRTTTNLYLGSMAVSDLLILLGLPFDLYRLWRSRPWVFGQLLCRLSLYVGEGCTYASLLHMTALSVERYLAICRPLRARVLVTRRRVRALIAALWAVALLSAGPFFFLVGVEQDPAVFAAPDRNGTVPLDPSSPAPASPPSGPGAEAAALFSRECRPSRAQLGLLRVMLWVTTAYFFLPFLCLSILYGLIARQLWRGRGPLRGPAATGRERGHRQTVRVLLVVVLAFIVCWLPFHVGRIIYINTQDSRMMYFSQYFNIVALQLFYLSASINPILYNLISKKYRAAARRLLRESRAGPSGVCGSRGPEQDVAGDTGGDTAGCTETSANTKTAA
Description: Motilin receptor binding test
A motilin receptor binding test was conducted in the following manner [Vantrappen et al., Regul. Peptides, 15, 143 (1986)]. The duodenum was extracted from a slaughtered rabbit, had the mucous membrane separated and homogenized in 50 mM Tris buffer to prepare a protein sample. The protein sample was incubated together with ^125I motilin 25 pM and thereafter the radioactivity bound to the protein was measured. Specific binding was defined as the difference between the radioactivity in the case of adding a great excess amount of motilin (10^−7 M) and that in the case of no adding. The activity of the compound was expressed by IC50 (in nM), as the concentration sufficient to reduce the specific binding by 50%.

[2] = system: specimen of longitudinal muscle in the duodenum extracted from a rabbit (motilin-induced contraction); experiment: Action on the motilin-induced contraction of a specimen of longitudinal muscle in the duodenum extracted from a rabbit; conditions: Oryctolagus cuniculus, organ bath, Krebs solution 28° C., read-out: Contraction suppressing test, pA2 (converted)
Description: Action on the Contraction of a Specimen of Longitudinal Muscle in the Duodenum Extracted from a Rabbit
The action on the motilin-induced contraction of a specimen of longitudinal muscle in the duodenum extracted from a rabbit was investigated by the following method. A duodenum specimen (5×15 mm) extracted from a slaughtered rabbit was suspended in an organ bath (10 ml) such that the longitudinal muscle would run vertically; the bath was filled with a Krebs solution kept at 28° C. A mixed gas (95% O2 and 5% CO2) was continuously bubbled into the Krebs solution and the contraction of the duodenum specimen was recorded isotonically (with a 1-g load) via an isotonic transducer (ME-3407, ME Commercial, Tokyo, Japan). The degree of contraction was expressed in relative values, with the contraction by acetylcholine at a dose of 10^−4 M being taken as 100%. The activity of the compound was calculated as pA2 value indicating its effect on the dose-dependent muscle contraction by the motilin put into the organ bath.

SMILES	pIC50 [1]	Kb [2]
Cc1cc(=O)[nH]c([C@H](Cc2ccc(O)c(C(C)(C)C)c2)NC(=O)[C@H](C(C)C)N(C)C(=O)[C@@H](N)Cc2ccc(F)cc2)n1 (single isomer, unassigned) [Example 19, 2-(1-(2-((2-amino-3-(4-fluorophenyl)propionyl)-N-methylamino)-3-methyl-butyrylamino)-2-(3-tert-butyl-4-hydroxyphenyl)ethyl)-6-methyl-4-pyrimidinone]	8.66	2 nM
CC(C)[C@@H](C(=O)N[C@@H](Cc1ccc(O)c(C(C)(C)C)c1)c1nccs1)N(C)C(=O)[C@@H](N)Cc1ccc(F)cc1 (single isomer, unassigned) [Example 23, 2-((2-amino-3-(4-fluorophenyl)propionyl)-N-methylamino)-3-methylbutyric acid 2-(3-tert-butyl-4-hydroxyphenyl)-1-(thiazol-2-yl)ethylamide]	9.17	0.501 nM
CC(C)[C@@H](C(=O)N(C)[C@@H](Cc1ccc(O)c(C(C)(C)C)c1)C(N)=O)N(C)C(=O)[C@@H](N)Cc1ccc(F)cc1 [Example 1, Phe(4-F)-N-Me-Val-N-Me-Tyr(3-tBu)-NH2] (H-[Phe(4-F)]-[NMeV]-[NMeTyr(3-tBu)]-NH2)	9.05	1.58 nM
CC(C)[C@@H](C(=O)N(C)[C@@H](Cc1ccc(O)c(C(C)(C)C)c1)C(N)=O)N(C)C(=O)[C@@H](N)Cc1ccc(Cl)cc1 [Example 2, Phe(4-Cl)-N-Me-Val-N-Me-Tyr(3-tBu)-NH2] (H-[Phe(4-Cl)]-[NMeV]-[NMeTyr(3-tBu)]-NH2)	9.15	2 nM
CC(C)[C@@H](C(=O)N(C)[C@@H](Cc1ccc(O)c(C(C)(C)C)c1)C(N)=O)N(C)C(=O)[C@@H](N)Cc1ccc(F)c(F)c1 [Example 3, Phe(3,4-F2)-N-Me-Val-N-Me-Tyr(3-tBu)-NH2] (H-[Phe(3,4-F2)]-[NMeV]-[NMeTyr(3-tBu)]-NH2)	8.82	2 nM
CC(C)[C@@H](C(=O)N(C)[C@@H](Cc1ccc(O)c(C(C)(C)C)c1)C(N)=O)N(C)C(=O)[C@@H](N)Cc1cccc(F)c1 [Example 4, Phe(3-F)-N-Me-Val-N-Me-Tyr(3-tBu)-NH2] (H-[Phe(3-F)]-[NMeV]-[NMeTyr(3-tBu)]-NH2)	8.80	5.01 nM
CC(C)[C@@H](C(=O)N[C@@H](Cc1ccc(O)c(C(C)(C)C)c1)C(=O)Nc1ccccn1)N(C)C(=O)[C@@H](N)Cc1ccc(F)cc1 [Example 8, 2-((2-amino-3-(4-fluorophenyl)propionyl)-N-methylamino)-3-methylbutyric acid 2-(3-tert-butyl-4-hydroxyphenyl)-1-(2-pyridylcarbamoyl)ethylamide]	9.46	0.316 nM
CC(C)[C@@H](C(=O)N[C@H](CNC(N)=O)Cc1ccc(O)c(C(C)(C)C)c1)N(C)C(=O)[C@@H](N)Cc1ccc(F)cc1 [Example 9, N-(2-(2-((2-amino-3-(4-fluorophenyl)propionyl)-N-methylamino)-3-methylbutyrylamino)-3-(3-tBu-4-hydroxyphenyl)propyl)urea]	9.00	1 nM
CC(C)[C@@H](C(=O)N[C@H](CNS(N)(=O)=O)Cc1ccc(O)c(C(C)(C)C)c1)N(C)C(=O)[C@@H](N)Cc1ccc(F)cc1 [Example 12, 2-(2-(2-amino-3-(4-fluorophenylpropanoyl-N-methylamino)-3-methyl)butyrylamino)-3-(3-tert-butyl-4-hydroxyphenyl)propylsulfamide]	9.28	0.501 nM
CC(C)[C@@H](C(=O)N[C@H](CNS(C)(=O)=O)Cc1ccc(O)c(C(C)(C)C)c1)N(C)C(=O)[C@@H](N)Cc1ccc(F)cc1 [Example 14, N-[2-(3-tert-butyl-4-hydroxyphenyl)-1-(methanesulfonylaminomethyl)ethyl]-2-[N-(4-fluorophenylalaminoyl)methylamino]-3-methylbutanamide]	9.15	0.501 nM
CC(C)[C@@H](C(=O)N[C@H](CC(N)=O)Cc1ccc(O)c(C(C)(C)C)c1)N(C)C(=O)[C@@H](N)Cc1ccc(F)cc1 [Example 15, 2-((2-amino-3-(4-fluorophenyl)propionyl)-N-methylamino)-3-methylbutyric acid 2-(3-t-butyl-4-hydroxyphenyl)-1-carbamidomethylethylamide]	9.09	3.16 nM
CC(C)[C@@H](C(=O)N[C@@H](Cc1ccc(O)c(C(C)(C)C)c1)CS(C)(=O)=O)N(C)C(=O)[C@@H](N)Cc1ccc(F)cc1 [Example 16, 2-((2-amino-3-(4-fluorophenyl)propionyl)-N-methylamino)-3-methylbutyric acid 2-(3-t-butyl-4-hydroxyphenyl)-1-methanesulfonylmethylethylamide]	9.39	0.398 nM
CC(C)[C@@H](C(=O)N[C@H](CO)Cc1ccc(O)c(C(C)(C)C)c1)N(C)C(=O)[C@@H](N)Cc1ccc(F)cc1 [Example 17, 2-(2-((2-amino-3-(4-fluorophenyl)propionyl)-N-methylamino)-3-methyl-butyrylamino)-3-(3-tBu-4-hydroxyphenyl)propanol]	9.15	0.794 nM
CC(C)[C@@H](C(=O)N[C@@H](Cc1ccc(O)c(C(C)(C)C)c1)c1nnco1)N(C)C(=O)[C@@H](N)Cc1ccc(F)cc1 [Example 21, 2-((2-amino-3-(4-fluorophenyl)propionyl)-N-methylamino)-3-methylbutyric acid 2-(3-t-butyl-4-hydroxyphenyl)-1-(1,3,4-oxadiazol-2-yl)ethylamide]	9.57	0.158 nM
CC(C)[C@@H](C(=O)N[C@@H](Cc1ccc(O)c(C(C)(C)C)c1)c1ncno1)N(C)C(=O)[C@@H](N)Cc1ccc(F)cc1 [Example 22, 2-((2-amino-3-(4-fluorophenyl)propionyl)-N-methylamino)-3-methylbutyric acid 2-(3-t-butyl-4-hydroxyphenyl)-1-(1,2,4-oxadiazol-5-yl)ethylamide]	9.28	5.01 nM
CC(C)[C@@H](C(=O)N[C@@H](Cc1ccc(O)c(C(C)(C)C)c1)c1nnc[nH]1)N(C)C(=O)[C@@H](N)Cc1ccc(F)cc1 [Example 24, 2-((2-amino-3-(4-fluorophenyl)propionyl)-N-methylamino)-3-methylbutyric acid 2-(3-t-butyl-4-hydroxyphenyl)-1-(1,3,4-triazol-2-yl)ethylamide]	9.03	0.794 nM
CC(C)[C@@H](C(=O)N(C)[C@@H](Cc1ccc(O)c(C(C)(C)C)c1)C(N)=O)N(C)C(=O)[C@@H](N)Cc1ccc(O)cc1F [Example 26, Tyr(2-F)-N-Me-Val-N-Me-Tyr(3-tBu)-NH2]	8.14	10 nM
CC(C)[C@@H](C(=O)N(C)[C@@H](Cc1ccc(O)c(C(C)(C)C)c1)C(N)=O)N(C)C(=O)[C@@H](N)Cc1ccc(O)c(F)c1 [Example 27, Tyr(3-F)-N-Me-Val-N-Me-Tyr(3-tBu)-NH2] (H-[Tyr(3-F)]-[NMeV]-[NMeTyr(3-tBu)]-NH2)	8.92	2.51 nM
CC(C)[C@@H](C(=O)N[C@@H](Cc1ccc(O)c(C(C)(C)C)c1)C(N)=O)N(C)C(=O)[C@@H](N)Cc1ccc(F)cc1 [Example 28, Phe(4-F)-N-Me-Val-Tyr(3-tBu)-NH2] (H-[Phe(4-F)]-[NMeV]-[Tyr(3-tBu)]-NH2)	9.28	1 nM
